# Source: article PMC9911596 (Nature Communications, 2023)
# Molecular target: T1, Vtc1/Vtc3/Vtc4 complex (VTC complex) (Saccharomyces cerevisiae, UniProt P47075+Q02725)
# T1 construct: full-length subunits co-expressed in Expi293F; Vtc1 C-terminal HA, Vtc3 N-terminal 3xFlag, Vtc4 C-terminal 2xStrep; detergent-purified; 3:1:1 pentamer; with Vacuolar transporter chaperone complex subunit 1
# T1 sequence (P47075 1-721): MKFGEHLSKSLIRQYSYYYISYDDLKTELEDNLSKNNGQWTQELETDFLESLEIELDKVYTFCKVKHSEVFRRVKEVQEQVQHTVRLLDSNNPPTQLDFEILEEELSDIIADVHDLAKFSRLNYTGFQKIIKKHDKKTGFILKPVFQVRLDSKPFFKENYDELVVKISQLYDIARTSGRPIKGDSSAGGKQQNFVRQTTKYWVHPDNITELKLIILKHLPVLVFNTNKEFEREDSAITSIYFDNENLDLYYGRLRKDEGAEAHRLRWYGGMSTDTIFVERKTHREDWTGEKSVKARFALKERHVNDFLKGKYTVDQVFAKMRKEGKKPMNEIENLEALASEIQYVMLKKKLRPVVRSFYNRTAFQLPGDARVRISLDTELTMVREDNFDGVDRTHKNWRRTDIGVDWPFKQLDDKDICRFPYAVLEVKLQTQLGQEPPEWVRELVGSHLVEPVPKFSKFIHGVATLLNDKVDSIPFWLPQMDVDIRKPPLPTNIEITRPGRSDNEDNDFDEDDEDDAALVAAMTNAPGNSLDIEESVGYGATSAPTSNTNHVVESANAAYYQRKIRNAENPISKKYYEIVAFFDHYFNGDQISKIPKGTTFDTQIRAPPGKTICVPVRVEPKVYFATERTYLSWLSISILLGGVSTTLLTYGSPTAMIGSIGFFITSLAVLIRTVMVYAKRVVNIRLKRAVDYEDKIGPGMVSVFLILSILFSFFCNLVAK
# T1 sequence (Q02725 1-835): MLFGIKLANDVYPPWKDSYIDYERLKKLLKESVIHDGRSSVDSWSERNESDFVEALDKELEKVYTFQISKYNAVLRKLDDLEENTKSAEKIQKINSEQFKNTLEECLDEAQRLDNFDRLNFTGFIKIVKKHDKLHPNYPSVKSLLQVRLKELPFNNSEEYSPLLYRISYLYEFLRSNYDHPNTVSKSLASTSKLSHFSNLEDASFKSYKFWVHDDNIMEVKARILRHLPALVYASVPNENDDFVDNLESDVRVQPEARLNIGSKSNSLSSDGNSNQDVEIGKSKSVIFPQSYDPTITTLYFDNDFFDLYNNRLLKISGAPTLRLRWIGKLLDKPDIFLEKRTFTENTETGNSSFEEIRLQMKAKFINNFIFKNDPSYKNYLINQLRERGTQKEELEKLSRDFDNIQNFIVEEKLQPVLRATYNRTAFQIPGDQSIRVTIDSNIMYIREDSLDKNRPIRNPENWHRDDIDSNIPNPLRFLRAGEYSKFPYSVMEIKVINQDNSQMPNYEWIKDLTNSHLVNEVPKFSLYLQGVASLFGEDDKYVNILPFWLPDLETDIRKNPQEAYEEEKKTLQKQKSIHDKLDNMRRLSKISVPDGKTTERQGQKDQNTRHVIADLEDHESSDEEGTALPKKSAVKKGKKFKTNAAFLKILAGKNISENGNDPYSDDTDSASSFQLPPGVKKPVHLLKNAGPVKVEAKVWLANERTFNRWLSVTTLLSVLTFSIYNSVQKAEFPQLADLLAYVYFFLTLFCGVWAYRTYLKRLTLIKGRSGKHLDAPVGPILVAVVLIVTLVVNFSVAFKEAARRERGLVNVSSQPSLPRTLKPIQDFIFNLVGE
# T1 sequence (P40046 22-129 partner): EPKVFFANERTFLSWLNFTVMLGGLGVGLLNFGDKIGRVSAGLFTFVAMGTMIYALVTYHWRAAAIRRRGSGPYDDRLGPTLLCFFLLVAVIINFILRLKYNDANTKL
# Assay: polyP synthesis, TBE-PAGE; smFRET
# Type: biochemical
# Conditions: 1 mM InsP6; activator; deletion of Vtc1 N-terminus
compound,measurement,value
O=P(O)(O)O[C@H]1[C@H](OP(=O)(O)O)[C@@H](OP(=O)(O)O)[C@H](OP(=O)(O)O)[C@@H](OP(=O)(O)O)[C@H]1OP(=O)(O)O [InsP6],"polyP synthesis, TBE-PAGE; smFRET",mutant VTC complex that can no longer be activated by the InsP6 stimulus
